Results on 2 substances are retold here after US20250127896A1, “CHIMERIC TIM4 RECEPTORS AND USES THEREOF” (CERO THERAPEUTICS HOLDINGS, INC., priority 2021, published 2025).

The test system of test [1] is REC-1 cells. The test is described as follows: T-cell activation markers PD-1 and 4-1BB in co-culture with REC-1 cells (flow cytometry). The note with it: co-culture with REC-1 cells in the presence of 0.5 μM ibrutinib, 96 hours. The test is classed as cell-based. As for the experimental part:
FIGS. 15A-15B: Induction of Cell-Surface Markers of T-Cell Activation in Ibrutinib-Treated Co-Cultures of CER1183 and CER1234 T cells and REC-1 Target Cells. Samples depicted in bar graphs from left to right, untransduced, CER-1183, and CER-1234. FIG. 15A: PD-1 expression in co-cultures. FIG. 15B: 4-1BB expression in co-cultures.
T-cell activation markers programmed death-1 (PD-1) and 4-1BB were evaluated on viable CD3+ T cells by flow cytometry using commercially available fluorochrome-conjugated antibodies. […] Assays were conducted 96 hours after initiation of co-culture of CER T cells with REC-1 cells.
A general note: In flow cytometry, cells or beads pass a laser one at a time.

In test [2] the test system is REC-1 cells. Nature of the test: Phagocytosis of pHrodo-labeled ibrutinib-treated REC-1 cells by CER T cells. The test is classed as cell-based. The text has this:
FIG. 13A: Representative flow cytometry histograms showing engulfment of pHrodo red-labeled REC-1 target cells by CER1234, CER1161, and CER1183 T cells. FIG. 13B: Graphical summary of flow cytometry data showing engulfment of pHrodo red-labeled REC-1 target cells by CER1234, CER1161, and CER1183 T cells. * P<0.01, ** P<0.001, *** P<0.0001; mean+SD, n=4. FIG. 13C: Representative fluorescence microscopy images (at 40×) showing engulfment of pHrodo red-labeled REC-1 target cells by CER1234, CER1161, and CER1183 T cells. FIG. 13D: Engulfed pHrodo-green-labeled REC-1 tumor fragments co-localize into Lyso-tracker red-labeled lysosomes.
Phagocytosis was assessed in co-culture assays of REC-1 cells with CER T cells. […] The percentage of pHrodo red-positive cells was determined by flow cytometry after 16 or 40 hours of co-culture. The localization of tumor fragments in CER T-cell lysosomal compartments was assessed in a separate experiment with REC-1 cells labeled with pHrodo green; following co-culture, all cells were labeled with Lyso-tracker red. Visualization of engulfment was performed by fluorescence microscopy. 1-way ANOVA with Dunnett's post hoc test was performed compared with untransduced T cells.

The subject of another test is Jeko1 TMEM30A−/− cells. The note with it: mantle cell lymphoma mouse model.
A further test has as its system E7 TCR T cells. Nature of the test: APC-like function: E7 peptide-pulsed CER T cells co-cultured with E7 TCR T cells (activation markers, CT Violet proliferation). The test is classed as cell-based. As for the experimental part: FIG. 1A: a schematic of pCTX247 (also referred to herein as CER247) and pCTX1107 (also referred to herein as CER1107 or CER1236) chimeric Tim4 receptors and pCTX1107 T cells pulsed with E7 peptides and co-cultured with E7-specific T cells to evaluate their antigen presentation capacity. FIG. 1B: E7-specific proliferation responses were measured by CT Violet dye dilution after 6 days in the presence of autologous CER-T (TLR containing or non-containing CERs) pulsed with E7 peptides. […] All data collected by FACS. Cell tracing show E7 TCR-T cells using an anti-mouse TCRb. E7 TCR-T cells were labeled with CT Violet at the time of co-culture. FIG. 1D: Percentage of proliferated E7 TCR cells in culture among live CD3+ cells determined by flow cytometry based on staining of cell trace violet low E7 TCRb+ cells.
FIG. 2: T cells containing chimeric Tim4 receptors with a TLR intracellular signaling domain added to the CD3ζ signaling domain (and optionally a CD28 signaling domain) are strong stimulators of autologous E7-specific T cell responses. CER-T cells were pulsed with E7 peptide and tested for their capacity to trigger an autologous E7-specific T cell response. CD25, a T cell activation marker, was evaluated on E7 TCR-T cells, 24 hours after CER-T cells were pulsed with E7 peptides. […]

Method for Jeko1 TMEM30A−/− cells: Using an engineered TMEM30a phospholipid flippase knockout JeKo-1 lymphoma cell line with constitutive phosphatidylserine exposure (JeKo-1 PS^+), tumor fragment uptake, cytotoxicity, cytokine secretion (GrB, IFN-γ, and TNF-α), and APC-like activity were evaluated in vitro. JeKo-1 PS^+ cells were labeled with the pH-sensitive pHrodo™ dye to quantify the uptake of tumor cells. Chimeric Tim4 receptor-T cells were tested for antigen-display capacity by evaluating autologous HPV E7 TCR T cell activation and proliferation following Chimeric Tim4 receptor-T cell co-culture with JeKo PS+ cells and HPV-derived peptides. Finally, Chimeric Tim4 receptor T cell anti-tumor activity was examined in xenografted MCL models. Statistical analysis was performed using 2-way ANOVA.

Take “CER-1234: chimeric Tim4 receptor: Tim4 binding domain-CD28tm-CD28-TLR2 TIR-CD3z, SEQ ID NO:18; tested as transduced T cells”: the “PD-1 and 4-1BB expression on the T-cell surface” value in the test with REC-1 cells [1] is “increased PD-1 and 4-1BB expression”. In addition, the “localization of internalized fragments” value in the test with REC-1 cells [2] (BTK inhibitor-primed REC-1 cells) is given as “internalized fragments were localized to lysosomal compartments”. The “engulfment of pHrodo red+ target cells” value with REC-1 cells [2] (REC-1 pretreated 10 μM ibrutinib, 16 and 40 hours of co-culture) is “increased engulfment of pHrodo red+target cells relative to untransduced T cells”.

Turning to “CER-1236: chimeric Tim4 receptor: Tim4 binding domain-CD28tm-CD28-CD3z-TLR2 TIR, SEQ ID NO:19; tested as transduced T cells”, in the test with Jeko1 TMEM30A−/− cells, the “anti-tumor effect / tumor burden” value is given as “showed anti-tumor effect”. In addition, the “E7 TCR-T cell surface activation markers CD25 and CD69 upregulated” value in the test on E7 TCR T cells (24 hrs following co-culture, controls 23.1%) was 41.2%. For the same substance, the “percentage of dividing E7-TCR-T cells” value in the test on E7 TCR T cells (by 6 days, controls 8%) is reported as 44%.
